test system: 475296-252-R-J1-PDC spheroid viability; experiment: Anticancer human tumor 475296-252-R-J1-PDC patient-derived rectal carcinoma cell line growth inhibition [PI3K]; conditions: second compound 0.1 µM; first compound 0.1 µM; active compounds read low; spheroids with HUVEC and MSC
Method in brief: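 Agents were dosed from a top concentration near clinical Cmax (otherwise 10 microM) in half-log decrements, alone or combined with PI3K inhibitors. The spheroids contain tumor cells plus endothelial (HUVEC) and MSC stroma; viability is measured.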
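Note: spheroids exposed to agents for seven days before readout.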

Compound	viability, T/C
Cn1nccc1Nc1nccc(-c2ccn(C(CO)c3ccc(Cl)c(F)c3)c(=O)c2)n1 (stereo unspecified) + CC(Nc1ccc2c(c1)OCCn1cc(N3C(=O)OCC3C(F)F)nc1-2)C(N)=O	94.7%

same assay, conditions: second compound 0.1 µM; first compound 0.316 µM; active compounds read low; spheroids with HUVEC and MSC

Compound	viability, T/C
C=CC(=O)N1CCN(c2nc(=O)n(-c3c(C)ccnc3C(C)C)c3nc(-c4c(O)cccc4F)c(F)cc23)C(C)C1 (stereo unspecified) + CC(Nc1ccc2c(c1)OCCn1cc(N3C(=O)OCC3C(F)F)nc1-2)C(N)=O	96.5%
CCN1CCN(Cc2ccc(Nc3ncc(F)c(-c4cc(F)c5nc(C)n(C(C)C)c5c4)n3)nc2)CC1 + CC(Nc1ccc2c(c1)OCCn1cc(N3C(=O)OCC3C(F)F)nc1-2)C(N)=O	94.3%
Cn1ncc(Cl)c1-c1cc(C(=O)NC(CN)Cc2cccc(F)c2)sc1Cl (stereo unspecified) + CC(Nc1ccc2c(c1)OCCn1cc(N3C(=O)OCC3C(F)F)nc1-2)C(N)=O	86.1%
Cn1nccc1Nc1nccc(-c2ccn(C(CO)c3ccc(Cl)c(F)c3)c(=O)c2)n1 (stereo unspecified) + CC(Nc1ccc2c(c1)OCCn1cc(N3C(=O)OCC3C(F)F)nc1-2)C(N)=O	76.8%

same assay, conditions: second compound 0.1 µM; first compound 1 µM; active compounds read low; spheroids with HUVEC and MSC

Compound	viability, T/C
C=CC(=O)N1CCN(c2nc(=O)n(-c3c(C)ccnc3C(C)C)c3nc(-c4c(O)cccc4F)c(F)cc23)C(C)C1 (stereo unspecified) + CC(Nc1ccc2c(c1)OCCn1cc(N3C(=O)OCC3C(F)F)nc1-2)C(N)=O	103%
CCN1CCN(Cc2ccc(Nc3ncc(F)c(-c4cc(F)c5nc(C)n(C(C)C)c5c4)n3)nc2)CC1 + CC(Nc1ccc2c(c1)OCCn1cc(N3C(=O)OCC3C(F)F)nc1-2)C(N)=O	71.8%
Cn1ncc(Cl)c1-c1cc(C(=O)NC(CN)Cc2cccc(F)c2)sc1Cl (stereo unspecified) + CC(Nc1ccc2c(c1)OCCn1cc(N3C(=O)OCC3C(F)F)nc1-2)C(N)=O	69.3%
Cn1nccc1Nc1nccc(-c2ccn(C(CO)c3ccc(Cl)c(F)c3)c(=O)c2)n1 (stereo unspecified) + CC(Nc1ccc2c(c1)OCCn1cc(N3C(=O)OCC3C(F)F)nc1-2)C(N)=O	83.7%

same assay, conditions: second compound 0.1 µM; first compound 3.16 µM; active compounds read low; spheroids with HUVEC and MSC

Compound	viability, T/C
C=CC(=O)N1CCN(c2nc(=O)n(-c3c(C)ccnc3C(C)C)c3nc(-c4c(O)cccc4F)c(F)cc23)C(C)C1 (stereo unspecified) + CC(Nc1ccc2c(c1)OCCn1cc(N3C(=O)OCC3C(F)F)nc1-2)C(N)=O	94%
Cn1ncc(Cl)c1-c1cc(C(=O)NC(CN)Cc2cccc(F)c2)sc1Cl (stereo unspecified) + CC(Nc1ccc2c(c1)OCCn1cc(N3C(=O)OCC3C(F)F)nc1-2)C(N)=O	59.4%
Cn1nccc1Nc1nccc(-c2ccn(C(CO)c3ccc(Cl)c(F)c3)c(=O)c2)n1 (stereo unspecified) + CC(Nc1ccc2c(c1)OCCn1cc(N3C(=O)OCC3C(F)F)nc1-2)C(N)=O	73.3%

same assay, conditions: second compound 0.1 µM; first compound 10 µM; active compounds read low; spheroids with HUVEC and MSC

Compound	viability, T/C
C=CC(=O)N1CCN(c2nc(=O)n(-c3c(C)ccnc3C(C)C)c3nc(-c4c(O)cccc4F)c(F)cc23)C(C)C1 (stereo unspecified) + CC(Nc1ccc2c(c1)OCCn1cc(N3C(=O)OCC3C(F)F)nc1-2)C(N)=O	98.6%
Cn1ncc(Cl)c1-c1cc(C(=O)NC(CN)Cc2cccc(F)c2)sc1Cl (stereo unspecified) + CC(Nc1ccc2c(c1)OCCn1cc(N3C(=O)OCC3C(F)F)nc1-2)C(N)=O	52.9%
Cn1nccc1Nc1nccc(-c2ccn(C(CO)c3ccc(Cl)c(F)c3)c(=O)c2)n1 (stereo unspecified) + CC(Nc1ccc2c(c1)OCCn1cc(N3C(=O)OCC3C(F)F)nc1-2)C(N)=O	58.1%

same assay, conditions: second compound 0.316 µM; first compound 0.00316 µM; active compounds read low; spheroids with HUVEC and MSC

Compound	viability, T/C
CCN1CCN(Cc2ccc(Nc3ncc(F)c(-c4cc(F)c5nc(C)n(C(C)C)c5c4)n3)nc2)CC1 + CC(Nc1ccc2c(c1)OCCn1cc(N3C(=O)OCC3C(F)F)nc1-2)C(N)=O	85%

same assay, conditions: second compound 0.316 µM; first compound 0.01 µM; active compounds read low; spheroids with HUVEC and MSC

Compound	viability, T/C
CCN1CCN(Cc2ccc(Nc3ncc(F)c(-c4cc(F)c5nc(C)n(C(C)C)c5c4)n3)nc2)CC1 + CC(Nc1ccc2c(c1)OCCn1cc(N3C(=O)OCC3C(F)F)nc1-2)C(N)=O	96.1%

same assay, conditions: second compound 0.316 µM; first compound 0.0316 µM; active compounds read low; spheroids with HUVEC and MSC

Compound	viability, T/C
C=CC(=O)N1CCN(c2nc(=O)n(-c3c(C)ccnc3C(C)C)c3nc(-c4c(O)cccc4F)c(F)cc23)C(C)C1 (stereo unspecified) + CC(Nc1ccc2c(c1)OCCn1cc(N3C(=O)OCC3C(F)F)nc1-2)C(N)=O	77.5%
CCN1CCN(Cc2ccc(Nc3ncc(F)c(-c4cc(F)c5nc(C)n(C(C)C)c5c4)n3)nc2)CC1 + CC(Nc1ccc2c(c1)OCCn1cc(N3C(=O)OCC3C(F)F)nc1-2)C(N)=O	90.6%
Cn1ncc(Cl)c1-c1cc(C(=O)NC(CN)Cc2cccc(F)c2)sc1Cl (stereo unspecified) + CC(Nc1ccc2c(c1)OCCn1cc(N3C(=O)OCC3C(F)F)nc1-2)C(N)=O	90.7%
Cn1nccc1Nc1nccc(-c2ccn(C(CO)c3ccc(Cl)c(F)c3)c(=O)c2)n1 (stereo unspecified) + CC(Nc1ccc2c(c1)OCCn1cc(N3C(=O)OCC3C(F)F)nc1-2)C(N)=O	81.1%
